Experimental data as given in patent US20170202936A1, “Identification, Optimization And Use Of Cryptic HLA-B7 Epitopes For Immunotherapy” (VAXON BIOTECH, priority 2006, published 2017).
“Also recorded” adds a separate entry of the source. No end group written: not given here.

Tests used:
HLA-B*0702 = biological target: T1, HLA-B*0702 (Homo sapiens, UniProt P01889); experiment: Measurement of peptide relative affinity to HLA-B*0702 (T2-B7 cells, ME-1 mAb staining); type: binding; conditions: for RA (relative affinity for HLA-B*0702): T2-B7 cells, 16 hours 37° C., ratio of concentrations inducing 20% HLA-B*0702 expression vs reference peptide CMV265-274; for RA: class symbols, Table IV
T1 construct: expressed in transfected cells; host or cells: human T2 cells transfected with HLA-B*0702 (T2-B7)
Experimental: The affinity of a peptide for HLA-B*0702 can be determined by methods known in the art, for instance by the assay described by Rohrlich et al., 2003. Results are expressed as relative affinity (RA) when compared to a reference peptide. […] Peptides with RA greater than 10 are therefore considered to be cryptic peptides (or epitopes).
Measurement of Peptide Relative Affinity to HLA-B*0702. The protocol used has been described previously (Rohrlich et al., 2003). Briefly, T2-B7 cells were incubated at 37° C. for 16 hours with peptides concentrations ranging from 100 μM to 0.1 μM, and then stained with ME-1 monoclonal antibody (mAb) to quantify the surface expression of HLA-B*0702. For each peptide concentration, the HLA-B*0702 specific staining was calculated as the percentage of staining obtained with 100 μM of the reference peptide CMV265-274 (R10V; […], SEQ ID NO: 9). The relative affinity (RA) was determined as: RA=(Concentration of each peptide that induces 20% of HLA-B*0702-expression/Concentration of the reference peptide that induces 20% of HLA-B*0702 expression).

[1] = system: HLA-B*0702 transgenic mice; experiment: CTL induction in vivo in HLA-B*0702 transgenic mice (immunogenicity, cytotoxic assay on peptide-loaded RMA-B7 targets); parameters: key: + for immunogenicity or native peptide cross recognition means that the peptide induced a specific response in at least one HLA-B*0702 transgenic mouse, able to recognized the corresponding native peptide; conditions: Table V
Experimental: (§1) CTL Induction in vivo in HLA-B*0702 Transgenic Mice. Mice were injected subcutaneously with 100 μg of peptide emulsified in Incomplete Freund's Adjuvant (IFA) in the presence of 150 μg of the I-A^b restricted HBVcore128 T helper epitope ([…], SEQ ID NO: 10). After 11 days, 5×10^7 spleen cells were stimulated in vitro with peptide (10 μM). On day 6 of culture, the bulk responder populations were tested for specific cytotoxicity.
(§2) Cytotoxic assay. Targets were labelled with 100 μCi of Cr^51 for 60 min, plated in 96-well V-bottomed plates (3×10^3 cell/well in 100 μL of RPMI 1640 medium) and, when necessary, pulsed with peptides (1 μM) at 37° C. for 2 hours. Effectors were then added in the wells and incubated at 37° C. for 4 hours. Percentage of specific lysis was determined as: % Lysis=(Experimental Release−Spontaneous Release)/(Maximal Release−Spontaneous Release)×100.
(§3) HLA-B7 transgenic mice were vaccinated with the selected peptides, and eleven days later, their spleen cells were in vitro stimulated with the peptide.

[2] = system: HLA-B*0702 transgenic mice; experiment: as above; parameters: key to Corresponding native peptide cross-reconnaissance: + for immunogenicity or native peptide cross recognition means that the peptide induced a specific response in at least one HLA-B*0702 transgenic mouse, able to recognized the corresponding native peptide; conditions: for Corresponding native peptide cross-reconnaissance: CTL induced in HLA-B*0702 transgenic mice; for Immunogenicity: specific CTL immune response (in words) / Recognition of the native peptide by CTL generated with the optimized peptide (in words): HLA-B*0702 transgenic mice
Experimental: as §1, §2, §3

[3] = system: HLA-B*0702 transgenic mice; experiment: as above; parameters: key: +: means that a specific immunoresponse was generated at least one HLA-B*0702 transgenic mice; conditions: Table IV
Experimental: as §1, §2, §3

[4] = system: SK-MES-1, HBL-100, SW-480 and HSS human tumor cell lines; experiment: Cytotoxicity of peptide-induced human CTL against human tumor cell lines; type: cell-based; conditions: one responding donor
Experimental: Cells. HLA-B*0702 transfected murine RMA-B7 and human T2-B7 cells were previously described (Rohrlich et al., 2003). COS-7 and WEHI-164 clone 13 cells were provided by F. Jotereau (INSERM 463, Nantes, France). The HLA-B*0702 positive SK-MES-1 (lung cancer), HBL-100 (breast cancer), and the HLA-B*0702 negative SW-480 (colon cancer) and HSS (myeloma) cell lines were used as targets of human CTL. All cell lines were grown in FCS 10% supplemented RPMI1640 culture medium.
(§4) Generation of CTL from human PBMC. PBMC were collected by leukapheresis from healthy HLA-B*0702 volunteers. Dendritic cells (DC) were produced from adherent cells cultured for seven days (2×10^6 cells/ml) in the presence of 500 IU/ml GM-CSF and 500 IU/ml IL-4 (R&D Systems, Minneapolis, Minn.) in complete medium (RPMI-1640 supplemented with 10% heat inactivated human AB serum, […] L-Glutamine and antibiotics). On day seven, DC were pulsed with 10 μM peptides for 2 hrs; maturation agents Poly I:C (Sigma, Oakville, Canada) at 100 ng/ml and anti-CD40 mAb (clone G28-5, ATCC, Manassas, Va.) at 2 μg/ml were added in the culture and DCs were incubated at 37° C. overnight or up to 48 hours. Mature DC were then irradiated (3500 rads). […]
(§5) Cytotoxic assay. […] Percentage of specific lysis was determined as: % Lysis=(Experimental Release−Spontaneous Release)/(Maximal Release−Spontaneous Release)×100.

T2-B7 targets = experiment: Generation of CTL from human PBMC of healthy donors, cytotoxicity against peptide-loaded T2-B7 targets; type: cell-based; conditions: one responding donor
Experimental: as §4, with “rads). CD8+ cells were purified by positive selection with CD8 MicroBeads (Miltenyi Biotec, Auburn, Calif.) according to the manufacturer's instructions. 2×10^5 CD8^+ cells+6×10^4 CD8^− cells were stimulated with 2×10^4 peptide pulsed DC in complete culture medium supplemented with 1000 IU/ml IL-6 and 5 IU/ml IL-12 (R&D Systems, Minneapolis, Minn.) in round-bottomed 96 well plates.” for “rads).”
as §5

RMA-B7 targets = experiment: Lysis of RMA-B7 targets loaded with decreasing peptide concentrations by murine CTL; type: cell-based; conditions: CTL from mice immunized with TERT444A1, restimulated in vitro with native TERT444, read-out: Half maximal lysis of peptide loaded targets
Experimental: as §1, §2

Sequence | Immunogenicity [3] | Immunogenicity: specific CTL immune response (in words) [2] | Affinity for HLA-B*0702 (in words) (HLA-B*0702) | RA (HLA-B*0702) | also measured
APEEISSMVL (HSP70_115A1 optimized peptide) [Hsp70 115A1] |  |  |  |  | RA (relative affinity for HLA-B*0702) (HLA-B*0702): >10
APKANKEIL (Her-2/neu760A1 optimized peptide derived from the cryptic peptide of SEQ ID NO3) [Her2/neu760A1] | + |  |  |  | Immunogenicity [1]: +; Corresponding native peptide cross-reconnaissance [2]: +
APKHSDCLA (Her-2/neu246A1 optimized peptide derived from the cryptic peptide of SEQ ID NO4) [Her2/neu246A1] | + |  |  |  | Immunogenicity [1]: +; Corresponding native peptide cross-reconnaissance [2]: +
APLSLGLET (Hsp70 397 antigen peptide) |  | Only the high affinity TERT4 was immunogenic | low affinity |  | RA (relative affinity for HLA-B*0702) (HLA-B*0702): >10
APRALVETL (MAGE-A antigen peptide) | + |  |  | + (+ = 1 < RA < 10) | 
APRASSPLL (a HLA-B*0702 restricted peptide) | + |  |  |  | 
APRCRAVRSL [TERT4] |  |  |  |  | Cytotoxicity of human CTL against human tumor cell lines [4]: killed the HLA-B*0702 TERT+SK-MES-1 and HBL-100 but not the HLA-B*0702-TERT+SW-480 and HSS human tumor cell lines; Cytotoxicity of human CTL against peptide-loaded T2-B7 targets (T2-B7 targets): killed T2-B7 targets presenting TERT4 but not T2-B7 cells presenting the irrelevant Nef peptide
APREISSMVL (HSP70_115A1R3 optimized peptide) [Hsp70115A1R3] | + | induced an immune response in the majority of vaccinated mice | strong affinity | + (+ = 1 < RA < 10) | Recognition of the native peptide by CTL generated with the optimized peptide (in words) [2]: recognized the optimized peptide but not the corresponding native peptide
APREYVNAL (Her-2/neu) | + |  |  | + (+ = 1 < RA < 10) | 
APRGVPQIEL (a HLA-B*0702 restricted peptide) | + |  |  |  | 
APRMHCAVDL (EphA2) | + |  |  | ++ (++ = RA < 1) | 
APRMPEAAL (a HLA-B*0702 restricted peptide) | + |  |  |  | 
APRPWTPCL (a HLA-B*0702 restricted peptide) | + |  |  | + (+ = 1 < RA < 10) | 
APRQLGREL (a HLA-B*0702 restricted peptide) | + |  |  |  | 
APRRRLGCEL (TERT antigen peptide) | + |  |  | + (+ = 1 < RA < 10) | 
APRSLGLEL (HSP70_397R3L9 optimized peptide) [Hsp70397R3L9] | + | induced an immune response in the majority of vaccinated mice | strong affinity | ++ (++ = RA < 1) | Recognition of the native peptide by CTL generated with the optimized peptide (in words) [2]: recognized the optimized peptide but not the corresponding native peptide
APRSPLAPL (Her-2/neu1069L9 optimized peptide derived from the cryptic peptide of SEQ ID NO2) [Her2/neu1069L9] | + |  |  | ++ (++ = RA < 1) | Immunogenicity [1]: +; Corresponding native peptide cross-reconnaissance [2]: +
APRSPLAPS (HER-2/neu1069 HLA-B*0702 restricted cryptic epitope) [Her2/neu1069] |  | not immunogenic |  |  | 
APRTKAEML (MAGE-121.1 A1R3 optimized peptide) | + |  |  | + (+ = 1 < RA < 10) | 
APRVSIRLPL (EphA2) |  |  |  | ++ (++ = RA < 1) | 
APVTKAEML (MAGE-121.1 A1 optimized peptide) [MAGE-121.1/A1] |  |  |  |  | RA (relative affinity for HLA-B*0702) (HLA-B*0702): >10
DPRRLVQLL [TERT444] |  | Only the high affinity TERT4 was immunogenic; also recorded: not immunogenic | low affinity |  | RA (relative affinity for HLA-B*0702) (HLA-B*0702): >10; EC50 (RMA-B7 targets): 5.5 nM
EPFTKAEML (MAGE-A121.2 antigen peptide) |  |  | low affinity |  | RA (relative affinity for HLA-B*0702) (HLA-B*0702): >10
EPITKAEIL (MAGE-A121.4 antigen peptide) |  |  | low affinity |  | RA (relative affinity for HLA-B*0702) (HLA-B*0702): >10
EPVTKAEML [MAGE-A121.1] |  |  | low affinity |  | RA (relative affinity for HLA-B*0702) (HLA-B*0702): >10
GPKHSDCLA (HER-2/neu246 HLA-B*0702 restricted cryptic epitope) [Her2/neu246] |  | not immunogenic |  |  | 
SPKANKEIL (HER-2/neu760 HLA-B*0702 restricted cryptic epitope) [Her2/neu760] |  | not immunogenic |  |  | 
YPEEISSMVL (peptide of Hsp70_115) [Hsp70 115] |  | Only the high affinity TERT4 was immunogenic | low affinity; also recorded: non binders |  | 
YPVTNAVITV (Hsp70 137(10) antigen peptide) [Hsp70 137 (10)] |  | Only the high affinity TERT4 was immunogenic | low affinity; also recorded: non binders |  | 
